Test systems include U251 CNS; RXF 393 renal; SF-268 CNS; CCRF-CEM leukemia; NCI-H23 lung; NCI-H522 lung; MALME-3M melanoma; CAKI-1 renal; SN12C renal; OVCAR-3 ovarian.
Common to all, as to assay: DTP human tumour cell line panel, 48 h

This note sets out measurements from PubChem BioAssay (NCI).

The structures appear in SMILES notation. Values joined by “and” are separate entries in the source; they are usually repeats but may differ in a detail not shown here. Equal entries are not always repeated.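 Step 1: Grow cells in 96-well plates. Step 2: Expose to compound for 48 hours at 5 concentrations. Step 3: Interpolate endpoints linearly; if unreached, use highest concentration. GI50 is the concentration that inhibits growth by half. TGI denotes the concentration required for complete inhibition of growth.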

As for `O=C(c1cc(Cc2n[nH]c(=O)c3ccccc23)ccc1F)N1CCN(C(=O)C2CC2)CC1`, the GI50 (usually the concentration that inhibits growth by half) is 35.1 µM and 31.5 µM with U251 CNS; 52.1 µM and > 41.4 µM in the test on RXF 393 renal; 53.2 µM and 59.6 µM in the test with SF-268 CNS; over 100 µM in the test on CCRF-CEM leukemia; 23.6 µM and 40.3 µM with NCI-H23 lung; over 100 µM in the test on NCI-H522 lung. The GI50 in the test on MALME-3M melanoma is 62.4 µM and > 100 µM; with CAKI-1 renal it was 16.5 µM and 54.5 µM; in the test with SN12C renal it was over 100 µM; in the test with OVCAR-3 ovarian it was 32.8 µM and > 77.2 µM. Moreover, the TGI with U251 CNS, in the test with RXF 393 renal, with SF-268 CNS, in the test on CCRF-CEM leukemia, in the test on NCI-H23 lung and with NCI-H522 lung was over 100 µM each time. For the same compound, the TGI (in general, the concentration giving total growth inhibition) with MALME-3M melanoma was over 100 µM; with CAKI-1 renal, 48.1 µM and > 100 µM; in the test with SN12C renal it was over 100 µM; in the test with OVCAR-3 ovarian, over 100 µM.
As to `CC(=O)N(O)c1ccc(/C=C/c2ccccc2)cc1`, the GI50 in the test with U251 CNS is 1.23 µM; in the test on RXF 393 renal, 0.539 µM; in the test on SF-268 CNS it was 0.817 µM; in the test on CCRF-CEM leukemia it was 0.137 µM; in the test with NCI-H23 lung it was 3.6 µM; with NCI-H522 lung, 3.58 µM. Moreover, the GI50 in the test with MALME-3M melanoma is over 66.6 µM; in the test on CAKI-1 renal, 0.543 µM; with SN12C renal, 0.763 µM; with OVCAR-3 ovarian it was 2.55 µM. Moreover, the TGI was 3.59 µM in the test with U251 CNS; 1.9 µM with RXF 393 renal; 9.69 µM with SF-268 CNS; over 100 µM in the test on CCRF-CEM leukemia; 36.3 µM with NCI-H23 lung; over 41.1 µM with NCI-H522 lung. The TGI in the test on MALME-3M melanoma is over 100 µM; with CAKI-1 renal, 3.22 µM; in the test on SN12C renal it was 37.5 µM; with OVCAR-3 ovarian, 29.2 µM.
With `Fc1ccc2nc(-c3nc(-c4ccccc4)n4ccccc34)[nH]c2c1`, the GI50 was 2.22 µM with U251 CNS; 2.99 µM in the test on RXF 393 renal; 3.29 µM with SF-268 CNS; 5.28 µM in the test on CCRF-CEM leukemia; 3.54 µM with NCI-H23 lung; 2.43 µM in the test with NCI-H522 lung. In addition, the GI50 is 2.06 µM in the test with MALME-3M melanoma, 3.38 µM with CAKI-1 renal, 4.5 µM with SN12C renal and 4.29 µM in the test with OVCAR-3 ovarian. The TGI in the test on U251 CNS is 5.42 µM; in the test with RXF 393 renal, 10.2 µM; in the test on SF-268 CNS it was 9.96 µM; in the test with CCRF-CEM leukemia it was over 100 µM; in the test with NCI-H23 lung, 17 µM; in the test with NCI-H522 lung, 5.6 µM. Moreover, the TGI in the test with MALME-3M melanoma is 4.33 µM; in the test on CAKI-1 renal, 15.1 µM; with SN12C renal it was 17.9 µM; with OVCAR-3 ovarian, 15.1 µM.
On to `COc1c(CC=C(C)C)c(O)c(C(CC(C)C)c2c(O)c(CC=C(C)C)c(O)c(C(C)=O)c2O)c(O)c1C(C)=O` (stereo not given), for which the concentration for total growth inhibition (TGI) was 11.2 µM with U251 CNS; 11.1 µM in the test on RXF 393 renal; 8.12 µM with SF-268 CNS; 1.65 µM in the test with CCRF-CEM leukemia; 0.877 µM with NCI-H23 lung; 1.48 µM in the test on NCI-H522 lung. Besides, the TGI in the test with MALME-3M melanoma amounted to 6.45 µM; in the test with CAKI-1 renal, 11.7 µM; with SN12C renal it was 6.84 µM; with OVCAR-3 ovarian it was 12.5 µM.
`CCn1ccnc1C(=O)/C=C/c1ccc(CC(=O)Nc2ccc(F)cc2)cc1`: the GI50 with U251 CNS was 1.88 µM; in the test with RXF 393 renal it was 3.39 µM; in the test with SF-268 CNS, 3.81 µM; in the test with CCRF-CEM leukemia, 4.35 µM; in the test on NCI-H23 lung, 4.25 µM; in the test with NCI-H522 lung, 3.92 µM. In addition, the GI50 in the test with MALME-3M melanoma was over 16.7 µM; with CAKI-1 renal it was 5.08 µM; in the test on SN12C renal it was 3.71 µM; in the test on OVCAR-3 ovarian it was 3.92 µM. The TGI is 7.94 µM with U251 CNS; 8.66 µM in the test with RXF 393 renal; over 16.7 µM in the test with SF-268 CNS; 16.3 µM in the test on CCRF-CEM leukemia; over 16.7 µM in the test with NCI-H23 lung; 10.2 µM in the test with NCI-H522 lung. In addition, the TGI in the test on MALME-3M melanoma, in the test with CAKI-1 renal, in the test on SN12C renal and with OVCAR-3 ovarian was over 16.7 µM throughout.
Regarding `O=C(CO)C1CC2C=CC1C2` (stereo not given), the concentration for total growth inhibition (TGI) with U251 CNS, in the test on RXF 393 renal, in the test on SF-268 CNS, with CCRF-CEM leukemia, with NCI-H23 lung and with NCI-H522 lung was over 100 µM throughout. Further, the TGI in the test with MALME-3M melanoma, in the test with CAKI-1 renal, with SN12C renal and in the test on OVCAR-3 ovarian was over 100 µM each time.
With `O=[N+]([O-])c1cc(Cc2cc([N+](=O)[O-])c3cccnc3c2O)c(O)c2ncccc12`, the TGI in the test on U251 CNS was 19.1 µM; in the test on RXF 393 renal, 18 µM; in the test with SF-268 CNS it was over 43.8 µM; in the test on CCRF-CEM leukemia it was 6.39 µM; with NCI-H23 lung, over 100 µM; in the test with NCI-H522 lung it was 38 µM. For the same compound, the TGI in the test on MALME-3M melanoma is 25.5 µM; in the test on CAKI-1 renal, 41.3 µM; in the test on SN12C renal, over 65.3 µM; in the test on OVCAR-3 ovarian, 6.71 µM.
